As a reminder, the IC50 is the concentration at which inhibition is half-maximal. The term inhibition in vivo denotes the percentage by which the read-out fell short of the control.

The source of these data is ChEMBL document CHEMBL1152840, “Antileukotrienic phenethylamido derivatives of arylalkanoic acids in the treatment of ulcerative colitis” (Eur J Med Chem, 2009).

The structures appear in SMILES notation.

Data set [1] deals with Mus musculus. Description: Antiinflammatory activity against dextrane disodium sulfate-induced ulcerative colitis in BALB/c mouse assessed as diseased animal with large intestine bleeding at 250 mg/kg administered 1 hr before dextrane disodium sulfate challenge. Format: functional.
Data set [2] deals with Mus musculus. Kind of data set: Antiinflammatory activity against dextrane disodium sulfate-induced ulcerative colitis in BALB/c mouse assessed as diseased animal with rectal prolapse at 250 mg/kg administered 1 hr before dextrane disodium sulfate challenge. Format: functional.
The nature of data set [3]: Lipophilicity, log K by HPLC method. It counts as physicochemical.
Data set [4] in a line: Antileukotrienic activity in rat PMNC assessed as inhibition of Ca2+ ionophore A23187-induced LTB4 production by RIA. Format: functional.
For data set [5], the system named is Mus musculus. Kind of data set: Antiinflammatory activity against dextrane disodium sulfate-induced ulcerative colitis in BALB/c mouse assessed as diseased animal with stool consistency at 250 mg/kg administered 1 hr before dextrane disodium sulfate challenge. Format: functional.
Data set [6] has as its system Mus musculus. Description: Antiinflammatory activity against dextrane disodium sulfate-induced ulcerative colitis in BALB/c mouse assessed as diseased animal with small intestine bleeding at 250 mg/kg administered 1 hr before dextrane disodium sulfate challenge. Format: functional.
Data set [7] deals with Mus musculus. Kind of data set: Antiinflammatory activity against dextrane disodium sulfate-induced ulcerative colitis in BALB/c mouse assessed as length of colon at 250 mg/kg administered 1 hr before dextrane disodium sulfate challenge. It counts as functional.
In data set [8] the test system is Mus musculus. Kind of data set: Antiinflammatory activity in mouse assessed as inhibition of arachidonic acid-induced ear lobe hyperemia at 200 mg/kg, po administered 1 hr before arachidonic acid challenge measured after 1 hr relative to untreated control. Format: functional.
For data set [9], the system named is Rattus norvegicus. Kind of data set: Antiinflammatory activity in rat assessed as inhibition of carrageenan-induced edema at 100 mg/kg relative to untreated control. It counts as functional. Background: The carrageenan paw model is a standard test of acute inflammation.
For data set [10], the system named is Mus musculus. Description: Antiinflammatory activity in mouse assessed as inhibition of arachidonic acid-induced ear lobe edema at 200 mg/kg, po administered 1 hr before arachidonic acid challenge measured after 1 hr relative to untreated control. It counts as functional.

For `COc1cc(/C=C/C(=O)O)ccc1OCCCCOc1ccc(CC(=O)N(C)CCc2ccccc2)cc1`, the Activity came to 100% in [1]; 0% in data set [2]; 80% in data set [5]; 0% in [6]; 6.8 cm in [7]. In addition, the “log K” value in data set [3] was 0.274. Moreover, the IC50 in [4] was found to be 13 µM. In addition, the inhibition in vivo at 200 mg/kg in data set [8] amounted to 0%; in data set [10], 23%. Further, in data set [9], the inhibition in vivo at 100 mg/kg was found to be 5.5%.

For `CC(C(=O)O)c1cccc2ccc(OCCCCOc3ccc(CC(=O)NCCc4ccccc4)cc3)cc12` (stereo not given), the Activity in [1] is 80%; in [2], 0%; in data set [5], 20%; in data set [6], 0%; in [7] it was 7.5 cm. Moreover, the “log K” value in [3] is 0.755. The IC50 in data set [4] worked out at 5.6 µM. In addition, the inhibition in vivo at 200 mg/kg was determined as 3.3% in [8] and 26% in data set [10]. Moreover, in data set [9], the inhibition in vivo at 100 mg/kg worked out at 22%.
